The values below come from patent US10751356B2, “Compositions and methods for transient up-regulation of Myc in B-cell lymphomas for enhancing P53 independent apoptotic responses to chemotherapy” (THE CHILDREN'S HOSPITAL OF PHILADELPHIA, priority 2013, dated 2020).

One test deals with Ramos cells. The experiment in a line: Yo-Pro flow cytometry of Ramos cells, apoptotic response to TRAIL (FIG. 8). It is filed as cell-based, human. To be noted: Ramos cells pre-treated with CHIR99021 for 2 hours followed by 5 h of TRAIL. As to the method: Ramos cells where left untreated (top-left panel), treated with TRAIL for 5 h (top-right panel), treated with CHIR99021 alone (bottom-left panel) or pre-treated with CHIR99021 for 2 hours followed by 5 h of TRAIL (bottom-right panel). Percentage of death cells was measured by incorporation of the nuclear staining Yo-Pro. Percentages of living and apoptotic cells are shown in the M4 and M5 gates respectively. […] TRAIL engages the extrinsic apoptotic pathway, activating Caspase-8, and is currently in clinical trials for the treatment of different oncological malignancies (reviewed in Stuckey and Shah, Trends in Mol Med 2013).
Background: In flow cytometry, cells or beads pass a laser one at a time.

The subject of the next test is Myc. The experiment in a line: Myc stabilization in B lymphoma cell lines with WT or mutant Myc-Thr58 treated with CHIR-99021 (FIG. 7). It is filed as cell-based. To be noted: B lymphoma cell lines with WT-Myc-Thr58 or Mut-Myc-Thr58, treated for indicated periods of time. The method, then:
FIG. 7: Stabilization of Myc by GSK3-inhibitors requires retention of the Myc-Threonine 58 residue: B lymphoma cell lines with WT-Myc-Thr58 (left panel) or Mut-Myc-Thr58 (right panel) were treated with CHIR-99021 for indicated periods of time.
As discussed above, treatment of Ramos cells [mutant for p53 and wild type for Myc (intact Threonine-58)] with GSK3-inhibitors increases the apoptotic response to drugs used to treat B cell lymphomas and leukemias within the CHOP-chemotherapeutic regimen: vincristine and doxorubicin. In our model, GSK3 inhibitors prevent phosphorylation of Myc at its Thr-58 residue by GSK3, inhibiting Myc degradation and inducing a transient stabilization and increase in the amount of the Myc protein. It has previously been shown that Myc-Thr58 is a hot spot for mutations in Burkitt's Lymphoma (Smith-Sorensen et al, JBC 1996), and when Myc-Thr58 is altered, the effect of transient stabilization induced by GSK3-inhibitors is lost (FIG. 7). Thus, cooperation of GSK3-inhibitors and chemotherapeutic drugs require retention of the Myc-Threonine-58 residue.

In test [1] the test system is Raji cells. Kind of test: Caspase-3/7 Glo activity in Raji cells treated with TRAIL with or without CHIR-99021 (FIG. 9B). To be noted: increasing concentrations of TRAIL in presence or absence of CHIR-99021. It is filed as cell-based, human. The method, then:
(§1) Raji cells were treated with indicated concentrations of TRAIL for 16 h in the presence or absence of CHIR-99021. (FIG. 9A) Immunoblotting with antibodies to detect cleavage of PARP and caspase-8, as well as Myc, beta-catenin and loading controls Tutbulin, Actin and GAPDH. (FIG. 9B) Caspase-3/7 activity were measured using the bioluminescent-based Caspase-3/7 Glo Kit (Promega). Fold increase in caspase activities relative to untreated cells, are shown for cells treated with TRAIL alone (light grey bars) or with TRAIL and CHIR-99021 (dark grey bars).
(§2) This finding is relevant since, as mentioned above, Threonine-58 is a hot spot for mutations in Burkitt's lymphoma (Smith-Sorensen et al, JBC 1996).

Test [2] deals with Raji cells. Kind of test: Immunoblotting of Raji cells treated with TRAIL with or without CHIR-99021 (FIG. 9A). It is filed as cell-based, human. The method, then: as §1, §2
In general terms: A western blot detects proteins with antibodies after separation by electrophoresis.

The subject of another test is Myc/p53ER™ cells. The experiment in a line: Apoptosis of Myc/p53ER B-lymphoma cells (FIGS. 1-3). It is filed as cell-based, mice. An excerpt: Because many Myc-driven tumors are defective for p53 activity, we sought to determine whether transient up-regulation of Myc also increases cell death in response to chemotherapeutic drugs in a p53-deficient background. For this purpose, we used B-lymphoma cells isolated from bone marrows of p53ER™ knock-in mice and subsequently transduced with a Myc-expressing retrovirus (2,3). This inducible system allowed us to distinguish between p53-dependent (cells treated with tamoxifen) and independent (no tamoxifen added) cell death. Additionally, instead of modulating Myc levels through miRNA inhibitors, which currently have limited clinical utility, we increased Myc stability with a small molecule inhibitor of GSK3β, which promotes proteosomal degradation of Myc. […] To validate this effect in a more relevant setting, we inhibited GSK3β in various Burkitt's lymphoma cell lines and achieved consistent up-regulation of Myc.

As to `Cc1c[nH]c(-c2cnc(NCCNc3ccc(C#N)cn3)nc2-c2ccc(Cl)cc2Cl)n1` [CHIR-99021, 6-{2-[4-(2,4-dichlorophenyl)-5-(4-methyl-1H-imidazol-2-yl)-pyrimidin-2-ylamino]ethyl-amino}nicotinonitrile], the “apoptotic response to TRAIL (percentage of dead cells by Yo-Pro)” value in the test on Ramos cells is recorded as “increases the apoptotic response to TRAIL”. Also, in the test on Myc, the “stabilization of Myc” value is listed as “induces stabilization of Myc only when the Myc-Thr-58 residue is retained”. For the same molecule, the “caspase 3 activity” value in the test on Raji cells [1] was “higher levels of caspase-3 activity”. The “cleaved caspase 8 and cleaved PARP by immunoblotting” value in the test on Raji cells [2] (Raji cells pre-treated with CHIR-99021 followed by TRAIL vs TRAIL only) was “increase in the amount of cleaved caspase 8 and cleaved PARP”. For the same molecule, in the test on Raji cells [2] (Raji cells, TRAIL for 16 h in presence or absence of CHIR-99021), the “apoptotic response to TRAIL” value was “increases the apoptotic response to TRAIL”. Besides, in the test with Raji cells [2] (Raji cells, immunoblotting), the levels of beta-catenin entry was “increased levels of beta-catenin” and the “levels of mutant Myc” value was “remain constant”. Besides, the “cell death with TRAIL and CHIR-99021” value in the test on Raji cells [2] (Raji cells, no functional p53 and mutant Myc-thr58) is listed as “killed Raji cells”.
Regarding `CC/C(=C(\c1ccccc1)c1ccc(OCCN(C)C)cc1)c1ccccc1` [tamoxifen], the “apoptosis by activation of p53” value with Myc/p53ER™ cells (tamoxifen added, without doxorubicin or modulation of Myc) is “sufficient to induce robust apoptosis”.
Consider `COc1cccc2c1C(=O)c1c(O)c3c(c(O)c1C2=O)C[C@@](O)(C(=O)CO)C[C@@H]3O[C@H]1C[C@H](N)[C@H](O)[C@H](C)O1` [doxorubicin], for which, in the test on Myc/p53ER™ cells (absence of active p53 (no tamoxifen)), the “cell killing / apoptosis” value was “cell killing was rather inefficient”.
